US20100048594A1, “USE OF CYTOHESIN INHIBITORS FOR CHEMICALLY INDUCING LONGEVITY” (RHEINISCHE FRIEDRICH-WILHELMS UNIVERSITAT, priority 2006, published 2010)

Legend:
[1] = test system: IGFBP1 (insulin-like growth factor binding protein); experiment: Transcription of IGFBP1 in insulin-treated HepG2 liver cells (quantitative PCR); assay type: cell-based, human
Description: Human hepG2 cells (ECACC) were cultivated in EMEM medium (Cambrex) with the addition of 10% fetal calf serum. 10^5 cells were seeded in 2 ml medium in 6 well plates and were cultivated at 37° C. in a moist atmosphere with 5% CO2 for 1 to 3 days, before being used for experiments.
For human HepG2 cells (ECACC), serum was removed from the medium for 24 hours, the cells were incubated for an additional 12 hours with concentrations of 1.5625 μM, 3.125 μM, 6.25 μM, 12.5 μM, 25 μM or 50 μM of the compound according to formula (9) and with 10 nM insulin. Control cells received DMSO in a concentration corresponding to that of the treated cells.
Total RNA was isolated using the Absolutely RNA Kit (Stratagene), and the cDNA was produced by means of the reverse transcription of 2 μg RNA using the High Capacity cDNA Archive Kit (Applied Biosystems), according to the manufacturer's instructions. Quantitative PCR was performed in 10 μl batches in an iQ5 Cycler (BioRad) by means of the TaqMan Gene Expression Assay (Applied Biosystems) using gene-specific primer (Applied Biosystems), according to the manufacturer's instructions. The data were normalized to the β2-microglobulin expression.

FoxO1A = experiment: Insulin-dependent phosphorylation of FoxO1A in HepG2 cells; assay type: cell-based, human; conditions: HepG2 cells, 5, 10, 15 μM compound, 100 nM insulin; based upon concentration
Akt [2] = experiment: Insulin-stimulated phosphorylation of Akt in mouse liver after feeding (immunoblot); assay type: in vivo, C57BL/6 mice; conditions: food with 0.9 μmol/g compound for 3 days, 40 μg insulin i.p.
Text: C57BL/6 mice (Charles River Laboratories) that had been kept in a pathogen-free animal facility, maintaining a 12-hour light/dark cycle, were used. The animals received standard mouse food (19% protein, 3.3% fat, 41.3% carbohydrates; ssniff Spezialdiäten GmbH) ad libitum. Male animals between the ages of 8 and 12 weeks were used.
A group of 6 C57BL/6 mice received standard mouse food mixed with 0.9 μmol/g of the compound according to formula (9) for a period of 3 days, while a control group of 6 animals received standard mouse food. The animals were then injected intraperitoneally with 100 μl normal saline solution (control group) or saline solution with 40 μg recombinant human insulin (Sigma). After 10 minutes the mice were anesthetized, the livers were removed and were lysed in lysate buffer (20 mM Tris-Cl, pH 7.5, 150 mM NaCl, 1 mM EDTA, 1 mM EGTA, 2.5 mM sodium pyrophosphate, 1 mM β-glycerophosphate, 1 mM sodium vanadate, 1% Triton X-100) and protease inhibitor mix HP (Serva).
Further, standardized quantities of protein were separated out using SDS-PAGE, and this protein was identified via immunoblotting, after being transferred to nitrocellulose membranes, with an antibody, against the phosphorylated protein Akt, pAkt (Thr308) (cell signaling). Visualization and evaluation were performed as described in Example 2.

4E-BP = experiment: Expression of insulin-repressed gene 4E-BP in fed Drosophila larvae (real-time PCR); assay type: in vivo; conditions: 10 mg compound per 1 g brewer's yeast, 3 days
Description: (§1) Three groups of 100 Drosophila larvae received 10 mg of the compound according to formula (9) mixed with 1 g autoclaved and pulverized brewer's yeast (Brewferm), while three control groups of 100 animals each received the uncut brewer's yeast. This food was administered on water-impregnated filters (Macherey-Nagel) for 3 days at 25° C.
(§2) In each case, more than 10 animals of the group were washed thoroughly with water, placed in lysate buffer (NucleoSpin RNA II kit, Macherey & Nagel), and homogenized for 1 minute at maximum speed (Ultra-Turrax T25basic). Total RNA was isolated using the NucleoSpin RNA II Kit (Macherey & Nagel, including DNase I-treatment on the column).
(§3) cDNA was produced from each 500 ng total RNA using the QuantiTect Reverse Transcription Kit (Qiagen), according to the manufacturer's instructions, including DNase I treatment. PCR was performed in batches with a total volume of 25 μl (iQ5 Real Time PCR Detection System, BioRad). The batches contained 1 μl of the cDNA batch, in each case 200 nM and 3′- and 5′-primer (Metabion) 12.5 μl 2×iQ5 SYBR Green Supermix (BioRad).
(§4) The PCR program that was used comprised 40 cycles with the following steps: 15 seconds denaturing at 95° C., 30 seconds annealing at 59° C. and 30 seconds extension at 72° C. Evaluation was carried out using the iQ5 Optical System software (Version 1.1.1442.OCR, BioRad). […]

1nR (insulin receptor) = experiment: Expression of insulin-repressed gene 1nR (insulin receptor) in fed Drosophila larvae (real-time PCR); assay type: in vivo; conditions: 10 mg compound per 1 g brewer's yeast, 3 days
Description: as §1, §2, §3, §4

Akt [3] = experiment: Insulin-stimulated phosphorylation of Akt in Drosophila S2 Schneider cells (Western blot); assay type: cell-based; conditions: 10 μM compound 2 hours, 10 μg/ml human insulin 15 minutes
Description: 10^6 Drosophila S2 cells (Schneider, 1972. J. Embryol. Exp. Morphol. 27, 353) were seeded in cell culture medium (PAN company) with 10% fetal calf serum and 1% streptomycin, penicillin (Gibco) in 35 mm cell culture plates (Nunc company) and cultivated for 2 days at 25° C. to 70-80% confluence. After 2 days, 0.5% (v/v) of the medium DMSO was added, and, based upon the experiment, 10 μM of the compound according to formula (9) was added for 2 hours before insulin stimulation. For an insulin stimulation, human insulin (Sigma) was used for 15 minutes at a rate of 10 μg/ml. Once stimulation was complete, the cells were washed with cold PBS, lysed in cold (4° C.) lysate buffer (50 mM Tris-HCl, pH 8.0, 150 mM NaCl, 1.0% Triton X-100, 0.1% SDS, 0.5% sodium deoxycholate, 50 mM NaF, 100 μM sodium orthovanadate, 1 mM phenylmethylsulfonyl fluoride and EDTA-free protease inhibitor (Roche), according to manufacturer's instructions, and used in the Western Blot analysis.
In each case, 10 μg protein were isolated on a 12% SDS polyacrylamide gel and transferred to 0.22 μm porous nitrocellulose membranes (Amersham). […]
Visualization was performed by means of the ECL Kit (Enhanced Chemiluminescence, Amersham) using the VersaDoc 5000 Imaging System (BioRad) and the QuantityOne software (BioRad).

**Q.** What does the source list for `COc1nc(-c2ccc3c(c2)OCO3)n(-c2ccc(NC(=O)CSc3ccccc3)cc2)n1` [Compound (9)]?
**A.** IGFBP1 expression relative to untreated cells ([1]; 12.5 μM compound, 10 nM insulin): nearly the value of the untreated cells; block of the insulin-dependent inhibition of the transcription of IGFBP1 ([1]; 12 hours with compound and 10 nM insulin): nearly completely block; insulin-dependent phosphorylation of FoxO1A (FoxO1A): inhibited; inhibition of the phosphorylation of the protein Akt stimulated by insulin (Akt [2]): approximately 40%; expression of insulin-repressed gene 4E-BP (4E-BP): more than four times; expression of insulin-repressed gene 1nR (insulin receptor) (1nR (insulin receptor)): more than double; insulin-stimulated phosphorylation of the protein Akt (Akt [3]): decreased by half
